Measured values from patent publication US6978572B1, “Method and device for attracting insects” (Colorado State University Research Foundation, priority 1998, dated 2005).
“And” between values parts separate entries of the source, which are not always exact repeats. Equal values may be shown once. “Also recorded” adds a separate entry of the source. Read-outs that look alike come from different tables or passages of the source.

What was measured:
[1] = tested on: western corn root worm larvae; settings: literature reports; cited from earlier work
[2] = tested on: western corn root worm larvae
wireworm larvae = settings: Doane et al. (1975); cited from earlier work
[3] = tested on: plant-parasitic nematodes; settings: cited from earlier work
[4] = tested on: Reticulitermes virginicus; test: T-tube choice-test behavioral bioassay with CO2; assay type: in vivo; settings: versus ambient air
Description: (§1) Behavioral bioassay apparatus: The choice-test bioassay apparatus was constructed from a glass T-tube (5 mm inside diameter, 5 mm stem, with each branch 4.5 cm long). Each branch of the ‘T’ was bent downward (2.5 cm from the junction of the ‘T’) at a 45° angle to form a pitfall trap. A 5 mm NMR cap (cat. no. 100-0050, Drummond Scientific, Broomall, Pa.) with a 1 mm pinhole in it was firmly pushed over the end of each bent branch. A 25 cm length of Teflon tubing (0.8 mm inside diameter) was inserted 3 mm into the hole in each NMR cap and the other end of the tubing was connected to a 35 ml polyethylene syringe (cat. no. 106-0490, Sherwood Medical, St. Louis, Mo.). The two 35-ml syringes were connected to a syringe pump which was adjusted to provide an airflow of 1 ml per min into each choice arm of the bioassay apparatus. Mixtures of CO2 and ambient air were tested to determine the termite response to a range of CO2 concentrations. A 35-ml syringe was rinsed with distilled water and partially filled (5 ml) with ambient air. Different amounts of 100% CO2 were obtained with a smaller glass syringe from a tank and injected into the 35-ml syringe. Ambient air was then drawn into the 35-ml syringe to fill it and mix the gases by turbulence as the syringe was loaded. A 2nd 35-ml polyethylene syringe was filled with ambient air for a control. Measurements with GC-MS-SIM confirmed that the CO2 concentrations reached equilibrium after 15 min. The CO2 concentration of the syringes was determined by using GC-MS-SIM analysis (see below) before each bioassay. Bioassays were conducted with both Reticulitermes tibialis and Reticulitermes flavipes for 1, 2, 5, 10, 20, 50 and 500 mmol per mol concentrations of CO2 and with Reticulitermes virginicus for 5, 10, 20, and 50 mmol per mol. Procedure: For bioassays, termite workers were collected from plastic tubs by using a camel's hair brush and were placed into a holding container constructed from a 3 cm length of Teflon tubing (8 mm inside diameter). The container was plugged at one end with a NMR cap with two holes (1 mm) drilled in the bottom. A second NMR cap with a 4 mm hole was inserted backwards into the other end of the Teflon tube. The end of the NMR cap was sealed with a small square of cellophane held in place with a plastic tube (a piece of plastic soda straw) that fit snugly over the open end. Termites (5 workers) were placed in the container and the top was sealed. The container was placed horizontally and left undisturbed for 20 min. The T-tube apparatus was assembled and clamped horizontally on top of a block of foam rubber (12 by 12 cm) with a wire bent into a U-shape. The syringe pump was turned on, and after 3 min of pumping, the cellophane seal was removed from the holding container and the entrance to the holding container was gently connected to the central arm of the T-tube, allowing termites to crawl out and enter the apparatus. Bioassays were conducted for 15 min, after which the number of termites in each pitfall was recorded. CO2 measurements: Gas chromatography-mass spectrometry in selected ion monitoring mode (GC-MS-SIM) at m/e 44 was used to determine CO2 concentrations. A Hewlett-Packard Series II 5890 gas chromatograph interfaced with a Hewlett-Packard 5971 mass selective detector was used with a methyl silicone capillary column (30 m×0.32 mm inside diameter, RSL-150, Alltech, Deerfield, Ill.). […]

Reticulitermes flavipes = test: T-tube choice-test behavioral bioassay with CO2; assay type: in vivo; settings: versus ambient air
Description: as §1

Reticulitermes tibialis = test: T-tube choice-test behavioral bioassay with CO2; assay type: in vivo
Description: as §1

ClCCl [dichloromethane, reference compound]
Attraction of larvae reported in earlier publications [1]: attractive to Diabrotica larvae

O=C=O [CO2, Carbon dioxide]
Selective response, attraction to higher CO2 concentration ([2]; 0.125 mmol/mol difference at higher base concentrations): no difference in attraction was observed in any of the tests at higher concentrations | Larvae attracted to CO2 side versus control side ([2]; 10 mmol/mol CO2 (10.43±0.18) versus ambient air, syringe sources): significantly more western corn root worm larvae (P<0.05) were attracted to the side containing 10 mmol/mol CO2 | Selective response, attraction to higher CO2 concentration ([2]; 1 versus 1.125 mmol/mol (actual 1.06±0.05 versus 1.18±0.05)): significantly greater attraction was observed to 1.125 mmol/mol than to 1 mmol/mol | Selective response, attraction to higher CO2 concentration ([2]; 1 versus 1.25 mmol/mol): more attracted to the higher CO2 concentration | Selective response, attraction to higher CO2 concentration ([2]; 1 versus 1.50 mmol/mol): Significantly more larvae were attracted | Selective response, attraction to higher CO2 concentration ([2]; 2 versus 2.25 mmol/mol): more attracted to the higher CO2 concentration | Selective response, attraction to higher CO2 concentration ([2]; 2 versus 2.50 mmol/mol): Significantly more larvae were attracted | Selective response, attraction to higher CO2 concentration ([2]; 5 versus 5.25 mmol/mol): no difference in attraction was observed | Selective response, attraction to higher CO2 concentration ([2]; 5 versus 5.50 mmol/mol): Significantly more larvae were attracted | Selective response, attraction to higher CO2 concentration ([2]; 10 versus 10.25 mmol/mol): no difference in attraction was observed | Selective response, attraction to higher CO2 concentration ([2]; 10 versus 10.50 mmol/mol): Significantly more larvae were attracted | Selective response, attraction to higher CO2 concentration ([2]; 20 versus 20.25 mmol/mol): no difference in attraction was observed | Selective response, attraction to higher CO2 concentration ([2]; 20 versus 20.50 mmol/mol): no difference in attraction was observed | Smallest difference between the 2 CO2 choices still attracting larvae to the higher concentration ([2]; base level 1 mmol/mol): 0.125 mmol/mol | CO2 excess over control at which larvae were 1st attracted ([2]; control contained 1, 2, 5, 10, and 20 mmol/mol CO2): 12.5% | Lowest CO2 concentration significantly attractive to neonate larvae ([2]; control side ambient air 0.99±0.02 mmol/mol): 1.125±0.04 mmol/mol | Highest concentration of CO2 to which larvae were attracted ([2]; dose-response, syringe sources): 100 mmol/mol and 85.6±1.20 mmol/mol | Most attractive (optimal) concentrations of CO2 ([2]; dose-response, syringe sources): 2.51-4.20 mmol/mol and 2.51±0.13 mmol/mol and 4.20±0.21 mmol/mol | Lowest concentration of CO2 attractive to the larvae ([2]; dose-response, syringe sources, control 0.91±0.03): 1.34±0.05 mmol/mol | Smallest CO2 difference to which larvae respond (wireworm larvae): 0.02% | CO2 threshold for nematode response ([3]; higher baseline concentration (1.0%)): 0.05% | CO2 threshold for nematode response ([3]; low baseline levels of CO2 (0.1%)): 0.01% | CO2 concentration of best attraction [4]: 10 mmol per mol | CO2 concentration of best attraction (Reticulitermes flavipes): 10 mmol per mol | Termites choosing CO2 side versus control side (Reticulitermes tibialis; 5 mmol/mol CO2 versus ambient air): significantly greater than the number that moved to the control side; also recorded: significantly more often; also recorded: Significantly more termites (p<0.05) were attracted to the side containing 5 mmol/mol CO2 than to the control side | CO2 concentration of best attraction (Reticulitermes tibialis; versus ambient air): 5 mmol per mol | CO2 concentrations to which termites were attracted (Reticulitermes tibialis; versus ambient air, 5 workers, 15 min): 10 mmol per mol and 20 mmol per mol | Attraction of larvae reported in earlier publications [1]: highly attracted to CO2
